Test results from patent US20160137630A1, “INDUCTION OF GATA2 BY HDAC1 AND HDAC2 INHIBITORS” (ACETYLON PHARMACEUTICALS, INC., priority 2014, published 2016).

Legend:
HDAC2 = HDAC2 (Homo sapiens, UniProt Q92769)
HbG mRNA = experiment: % HbG mRNA induction in 2-phase culture systems CS1 and CS2; format: cell-based, human
From the text: Then, the cells were differentiated by exposure to either vehicle (control) or Compound 001. RNA samples of HbG were taken at days 0, 3, 5, and 8. […] Staining cells with a FITC-conjugated anti-HbF antibody and flow cytometry was used to measure induction of fetal hemoglobin.

[1] = dosing schedule study in rats; format: in vivo, rat; settings: 30 mg/kg
Description: IV. Rats were dosed with 30 mg/kg once daily by oral gavage according to the above schedule. […] Group 1=daily dosing, Group 2=5 on 2 off, Group 3=3 on 4 off, Group 4=every other day, Group 5=control. N=4 animals per group (FIG. 28A).
Data points are the average of N=4 animals. HbE2 mRNA level was determined by quantitative real time PCR and expressed relative to HbB mRNA control. Data for each animal was then normalized to the expression level prior to the onset of dosing (average of day −3 and day 0 values).
Data points are the average of N=4 animals.

[2] = blood cell counts in monkeys; format: in vivo, cynomolgus monkey; settings: monkey
Description: B. Cynomolgus monkey were dosed once daily by oral gavage for 5 consecutive days at 0 mg/kg, 25 mg/kg, or 75 mg/kg per dose (FIG. 25B). Sampling as described in ‘A’.
For each individual monkey, white blood cell counts were expressed relative to their predose level (time=day 0). Points are the average of n=3 animals with error bars showing the standard deviation.

[3] = every other day dosing schedule

HDAC2, sequence (Q92769 whole entry): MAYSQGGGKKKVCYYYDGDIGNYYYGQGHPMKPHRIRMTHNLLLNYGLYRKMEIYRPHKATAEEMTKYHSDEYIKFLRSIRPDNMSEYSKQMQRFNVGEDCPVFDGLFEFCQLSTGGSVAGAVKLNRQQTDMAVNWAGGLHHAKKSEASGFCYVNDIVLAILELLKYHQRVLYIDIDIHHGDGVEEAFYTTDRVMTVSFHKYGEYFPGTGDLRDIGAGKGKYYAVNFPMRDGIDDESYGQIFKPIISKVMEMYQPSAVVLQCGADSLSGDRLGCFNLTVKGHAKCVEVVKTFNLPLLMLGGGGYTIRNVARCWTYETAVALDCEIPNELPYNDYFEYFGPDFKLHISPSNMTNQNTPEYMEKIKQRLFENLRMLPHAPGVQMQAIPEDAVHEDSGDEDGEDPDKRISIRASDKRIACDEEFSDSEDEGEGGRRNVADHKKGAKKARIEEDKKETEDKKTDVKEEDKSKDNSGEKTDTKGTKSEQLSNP

Nc1ccc(-c2cccs2)cc1NC(=O)c1ccc2nc(N3CCNCC3)ccc2c1 [Compound 001, N-(2-amino-5-(thiophen-2-yl)phenyl)-2-(piperazin-1-yl)quinoline-6-carboxamide]
IC50 (HDAC2): 42 nM | % HbG (HbG mRNA; 1 μM, increased from 10%): 46% | induction in % HbG (HbG mRNA; differentiation phase, both culture systems, FIG. 10B, 21A-C): dose- and time-dependent induction | mode of HbF expression (HbE2 mRNA pattern) ([1]; 3 on 4 off dosing schedule): heterocellular mode of HbF expression | myelosuppression (white blood cell counts) ([1]; 3 on 4 off dosing schedule): greater myelo suppression | mode of HbF expression (HbE2 mRNA pattern) [1, 3]: pancellular mode of HbF expression | myelosuppression (white blood cell counts) [1, 3]: less myelosuppression | RBC or platelets [2]: no detected affect | time of peak white blood cell suppression after the last dose [2]: 1 days | time to recovery of white blood cell counts to baseline after the last dose [2]: 5 days | white blood cells ([2]; 25 or 75 mg/kg for 5 days): reversible suppression
